Values of other authors, collected in US12691176B2, “Ionic nanovesicle suspension and biocide prepared therefrom” (priority 2015, dated 2026).

How the values were obtained:
[1] = system: bacteria; conditions: very low concentrations
[2] = system: fungi

Substance: Polyaminopropyl biguanide [PAPB]
- bactericidal concentration [1]: 10 mg/L
- fungicidal activity [2]: fungicidal
